One assay concerns the target Dopamine receptor D2 (Homo sapiens, UniProt P14416). It is filed as cell-based. Particulars: Fig. 3A agonist assay.
The target of a further assay is T1, Dopamine receptor D4 (Homo sapiens, UniProt P21917).
T1 sequence (P21917 1-419): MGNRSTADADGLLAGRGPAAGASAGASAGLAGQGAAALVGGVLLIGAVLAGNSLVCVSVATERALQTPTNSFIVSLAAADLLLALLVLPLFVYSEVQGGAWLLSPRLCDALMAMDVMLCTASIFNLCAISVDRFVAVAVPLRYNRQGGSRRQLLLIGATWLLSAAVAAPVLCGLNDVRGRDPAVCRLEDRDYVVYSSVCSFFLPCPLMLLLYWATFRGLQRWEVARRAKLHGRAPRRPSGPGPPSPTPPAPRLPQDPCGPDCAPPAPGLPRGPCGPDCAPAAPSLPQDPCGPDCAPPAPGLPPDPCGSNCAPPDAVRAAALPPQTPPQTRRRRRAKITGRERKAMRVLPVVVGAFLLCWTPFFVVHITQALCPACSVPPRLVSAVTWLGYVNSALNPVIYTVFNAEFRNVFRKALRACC
It is filed as cell-based. As to conditions: Fig. 3A agonist assay.

The next assay addresses D2 Receptor (Homo sapiens, UniProt P14416). Put plainly: radioligand binding, [3H]N-methylspiperone. Particulars: @ 10μM (Fig. 1c).
The target of a further assay is T2, D4 Receptor (Homo sapiens, UniProt P21917).
T2 sequence (P21917 1-419): T1 sequence (P21917 1-419)
The assay is described as follows: radioligand binding, [3H]N-methylspiperone. Particulars: bound stated.

Sequence of D2 Receptor (P14416 whole entry): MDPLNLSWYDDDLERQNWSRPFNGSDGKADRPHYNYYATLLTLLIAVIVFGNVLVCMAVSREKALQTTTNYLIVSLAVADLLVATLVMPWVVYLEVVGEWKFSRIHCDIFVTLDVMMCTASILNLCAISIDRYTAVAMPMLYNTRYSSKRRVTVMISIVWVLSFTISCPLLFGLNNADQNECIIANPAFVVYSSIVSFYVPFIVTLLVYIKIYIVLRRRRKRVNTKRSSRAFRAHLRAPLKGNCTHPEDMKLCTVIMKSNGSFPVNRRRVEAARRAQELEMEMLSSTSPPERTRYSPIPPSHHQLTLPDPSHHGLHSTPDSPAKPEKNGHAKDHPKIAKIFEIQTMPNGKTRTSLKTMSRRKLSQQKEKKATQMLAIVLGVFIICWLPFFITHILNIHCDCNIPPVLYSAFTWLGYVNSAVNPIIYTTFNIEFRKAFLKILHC
Sequence of Dopamine receptor D2 (P14416 whole entry, species assumed): as the sequence (P14416 whole entry) above

Regarding `COc1cc2c(cc1OC)C(=O)N(CCCCN1CCN(c3ccccc3OC)CC1)C2` [Compound 3], the D2 functional mode entry on Dopamine receptor D2 is listed as “inverse agonist”. Besides, the D4 functional mode entry at Dopamine receptor D4 was “agonist”. The “radioligand percentage inhibition D2” value on D2 Receptor is on record as 96%.

In general, Ki refers to the dissociation constant of the complex between target and ligand, obtained from inhibition or displacement. High values mean weaker binding, low ones tighter binding. On D4 Receptor, `c1cncc(OC[C@@H]2CN(CCN3CCc4ccccc43)CCO2)c1` [Compound 21s] registered a Ki below 1 µM.

Consider `COc1cc2c(cc1OC)C(=O)C(CC1CCN(Cc3ccccc3)CC1)C2` (stereo not drawn) [Donepezil (Cpd 1), Donepezil, reference compound], for which the D4 functional mode result on Dopamine receptor D4 is on record as “inverse agonist”. Also, the “radioligand percentage inhibition D2” value on D2 Receptor was determined as 19%.

Source of the values: paper PMC3653568 (Nature, 2012).
